Where two headings read alike, the source gives them in different places.
Tests used:
[1] = Phase 1 SRD/multiple-rising dose (MRD, Part 2) plasma PK in healthy subjects; assay type: in vivo, human; settings: for Vd/F: read-out: Vz/F
Procedure: The study was designed to assess the safety, tolerability, PK, and PD of COMPOUND A. A total of 88 subjects were enrolled in 6 SRD and 5 SRD/MRD cohorts (n=8 per cohort). The study was composed of 2 parts.
In Part 2 of the study (SRD/MRD cohorts), a single oral tablet dose of COMPOUND A (0.3, 1, 3, 6, or 9 mg) or matching placebo was administered on Day 1 followed by safety, tolerability, PK, and PD assessments. Study drug (at the same dose level) was then administered once daily (QD) for 13 days, on […]. Each cohort of 8 subjects (6 active: 2 placebo) were administered study drug sequentially to ensure adequate safety and tolerability before administering the next dose level. Neither sentinel nor staggered dosing was used for the SRD/MRD cohorts. Subjects were confined in the study unit for 21 days, from Check-in on Day −1 until 72 hours after the last dose of study drug.
For all cohorts in Parts 1 and 2, serial PK blood samples were collected pre- and post-dose on Day 1 to measure plasma concentrations of COMPOUND A and its metabolites. For all SRD/MRD cohorts in Part 2, urine samples were collected pre- and post-dose on Day 1 and post-dose on Day 18 to measure concentrations of COMPOUND A and its metabolites.
For Part 1 of the study, all 36 subjects who received COMPOUND A were included in the PK set. For Part 2 of the study, all 30 subjects who received COMPOUND A were included in the PK set.
Referring now to FIG. 3, mean plasma concentration-time profiles (linear and semilog scales) of COMPOUND A were determined on Day 18 following oral administration of COMPOUND A QD for 13 days.

[2] = 13-week NHP GLP toxicity study: toxicokinetics; assay type: in vivo, Monkey (Macaca fascicularis); settings: cynomolgus monkey, plasma, oral; range across all TK sampling days (1st, 29th, 90th dosing)
Procedure: Blood samples (a target of 0.5 mL each, Na-heparin tubes) were collected from all animals at the following timepoints: • Phase 1: at 4 hours after dosing. • Phase 2: Plasma concentrations of COMPOUND A and its metabolites were determined for all dose groups after the 1st, the 29th dosing and the 90th dosing. Blood collection occurred in each animal in all groups before dosing (at the 29th and 90th dose only) and 1, 2, 4, 8, and 24 hours after dosing. Blood samples were collected into Na-heparin tubes via the implanted catheter or from the jugular, cephalic or femoral vein by venipuncture; tubes were kept on wet ice pending centrifugation. The blood samples were centrifuged at 5400×g for 5 minutes under cooling conditions (set to 4° C.) to obtain the plasma. The plasma was divided into duplicate samples (at least 100 μL each) and was kept on dry ice and stored in a freezer set to −20° C. until shipment. Back-up samples (set 2 of 2) were stored separately from set 1 of 2.
Non-compartmental toxicokinetic analysis was performed by the subcontractor on the plasma concentration data for COMPOUND A, and its metabolites using validated WinNonlin software. The TK parameters (tmax, Cmax, t1/2, MRT24, MRTinf, AUC24 and AUCinf) were calculated for all animals except for the control animals.

[3] = system: healthy subjects; experiment: TMS crossover study: safety and tolerability; settings: single doses 0.5 mg and 6 mg oral tablets
[4] = 0.3 mg QD cohort, Study Day 1, mean
[5] = 1 mg QD cohort, Study Day 1, mean
[6] = 3 mg QD cohort, Study Day 1, mean
[7] = 6 mg QD cohort, Study Day 1, mean
[8] = 9 mg QD cohort, Study Day 1, mean
[9] = both sexes, human, plasma, oral, 0.3 mg QD cohort, Study Day 1, mean
[10] = both sexes, human, plasma, oral, 1 mg QD cohort, Study Day 1, mean
[11] = both sexes, human, plasma, oral, 3 mg QD cohort, Study Day 1, mean
[12] = both sexes, human, plasma, oral, 6 mg QD cohort, Study Day 1, mean
[13] = both sexes, human, plasma, oral, 9 mg QD cohort, Study Day 1, mean

CC1=CN2CCS(=O)(=O)N=C2C(c2ccc(OC3CCCCC3)cc2)=N1 [COMPOUND A, 9-[4-(Cyclohexyloxy)phenyl]-7-methyl-3,4-dihydropyrazino[2,1-c][1,2,4]thiadiazine 2,2-dioxide]
CL/F [1, 4]: 2.38 L/h | t1/2z [1, 4]: 37.1 h | Cav, ss ([1]; 0.3 mg QD, Study Day 18, mean): 6.27 ng/mL | CL/F [1, 5]: 2.35 L/h | t1/2z [1, 5]: 42.4 h | Cav, ss ([1]; 1 mg QD, Study Day 18, mean): 20.9 ng/mL | CL/F [1, 6]: 1.81 L/h | t1/2z [1, 6]: 52.6 h | Cav, ss ([1]; 3 mg QD, Study Day 18, mean): 81.1 ng/mL | CL/F [1, 7]: 3.25 L/h | t1/2z [1, 7]: 36.0 h | Cav, ss ([1]; 6 mg QD, Study Day 18, mean, n = 5): 122 ng/mL | CL/F [1, 8]: 2.17 L/h | t1/2z [1, 8]: 49.9 h | Cav, ss ([1]; 9 mg QD, Study Day 18, mean): 192 ng/mL | AUC ([1]; both sexes, human, plasma, oral, 0.3 mg, 0.3 mg QD cohort, Study Day 1, mean, read-out: AUC24): 48 ng·h/mL | Cmax ([1]; both sexes, human, plasma, oral, 0.3 mg, 0.3 mg QD cohort, Study Day 1, mean, read-out: Cmax): 2.93 ng/mL | Tmax ([1]; both sexes, human, plasma, oral, 0.3 mg, 0.3 mg QD cohort, Study Day 1, median, read-out: tmax): 1.25 h | AUC ([1]; both sexes, human, plasma, oral, 0.3 mg, 0.3 mg QD, Study Day 6, mean, read-out: AUC24): 51.8 ng·h/mL | Cmax ([1]; both sexes, human, plasma, oral, 0.3 mg, 0.3 mg QD, Study Day 6, mean, read-out: Cmax): 3.07 ng/mL | Tmax ([1]; both sexes, human, plasma, oral, 0.3 mg, 0.3 mg QD, Study Day 6, median, read-out: tmax): 1.5 h | AUC ([1]; both sexes, human, plasma, oral, 0.3 mg, 0.3 mg QD, Study Day 18, mean, read-out: AUCτ): 151 ng·h/mL | Cmax ([1]; both sexes, human, plasma, oral, 0.3 mg, 0.3 mg QD, Study Day 18, mean, read-out: Cmax, ss): 7.87 ng/mL | Tmax ([1]; both sexes, human, plasma, oral, 0.3 mg, 0.3 mg QD, Study Day 18, median, read-out: tmax): 2.5 h | AUC ([1]; both sexes, human, plasma, oral, 1 mg, 1 mg QD cohort, Study Day 1, mean, read-out: AUC24): 138 ng·h/mL | Cmax ([1]; both sexes, human, plasma, oral, 1 mg, 1 mg QD cohort, Study Day 1, mean, read-out: Cmax): 7.82 ng/mL | Tmax ([1]; both sexes, human, plasma, oral, 1 mg, 1 mg QD cohort, Study Day 1, median, read-out: tmax): 4 h | AUC ([1]; both sexes, human, plasma, oral, 1 mg, 1 mg QD, Study Day 6, mean, read-out: AUC24): 162 ng·h/mL | Cmax ([1]; both sexes, human, plasma, oral, 1 mg, 1 mg QD, Study Day 6, mean, read-out: Cmax): 10 ng/mL | Tmax ([1]; both sexes, human, plasma, oral, 1 mg, 1 mg QD, Study Day 6, median, read-out: tmax): 1 h | AUC ([1]; both sexes, human, plasma, oral, 1 mg, 1 mg QD, Study Day 18, mean, read-out: AUCτ): 503 ng·h/mL | Cmax ([1]; both sexes, human, plasma, oral, 1 mg, 1 mg QD, Study Day 18, mean, read-out: Cmax, ss): 24.9 ng/mL | Tmax ([1]; both sexes, human, plasma, oral, 1 mg, 1 mg QD, Study Day 18, median, read-out: tmax): 4.5 h | AUC ([1]; both sexes, human, plasma, oral, 3 mg, 3 mg QD cohort, Study Day 1, mean, read-out: AUC24): 480 ng·h/mL | Cmax ([1]; both sexes, human, plasma, oral, 3 mg, 3 mg QD cohort, Study Day 1, mean, read-out: Cmax): 28.7 ng/mL | Tmax ([1]; both sexes, human, plasma, oral, 3 mg, 3 mg QD cohort, Study Day 1, median, read-out: tmax): 1.5 h | AUC ([1]; both sexes, human, plasma, oral, 3 mg, 3 mg QD, Study Day 6, mean, read-out: AUC24): 594 ng·h/mL | Cmax ([1]; both sexes, human, plasma, oral, 3 mg, 3 mg QD, Study Day 6, mean, read-out: Cmax): 34.7 ng/mL | Tmax ([1]; both sexes, human, plasma, oral, 3 mg, 3 mg QD, Study Day 6, median, read-out: tmax): 1.54 h | AUC ([1]; both sexes, human, plasma, oral, 3 mg, 3 mg QD, Study Day 18, mean, read-out: AUCτ): 1950 ng·h/mL | Cmax ([1]; both sexes, human, plasma, oral, 3 mg, 3 mg QD, Study Day 18, mean, read-out: Cmax, ss): 100 ng/mL | Tmax ([1]; both sexes, human, plasma, oral, 3 mg, 3 mg QD, Study Day 18, median, read-out: tmax): 4 h | AUC ([1]; both sexes, human, plasma, oral, 6 mg, 6 mg QD cohort, Study Day 1, mean, read-out: AUC24): 767 ng·h/mL | Cmax ([1]; both sexes, human, plasma, oral, 6 mg, 6 mg QD cohort, Study Day 1, mean, read-out: Cmax): 42 ng/mL | Tmax ([1]; both sexes, human, plasma, oral, 6 mg, 6 mg QD cohort, Study Day 1, median, read-out: tmax): 5 h | AUC ([1]; both sexes, human, plasma, oral, 6 mg, 6 mg QD, Study Day 6, mean, n = 5, read-out: AUC24): 784 ng·h/mL | Cmax ([1]; both sexes, human, plasma, oral, 6 mg, 6 mg QD, Study Day 6, mean, read-out: Cmax): 50.2 ng/mL | Tmax ([1]; both sexes, human, plasma, oral, 6 mg, 6 mg QD, Study Day 6, median, read-out: tmax): 5 h | AUC ([1]; both sexes, human, plasma, oral, 6 mg, 6 mg QD, Study Day 18, mean, n = 5, read-out: AUCτ): 2930 ng·h/mL | Cmax ([1]; both sexes, human, plasma, oral, 6 mg, 6 mg QD, Study Day 18, mean, n = 5, read-out: Cmax, ss): 148 ng/mL | Tmax ([1]; both sexes, human, plasma, oral, 6 mg, 6 mg QD, Study Day 18, median, n = 5, read-out: tmax): 3.05 h | AUC ([1]; both sexes, human, plasma, oral, 9 mg, 9 mg QD cohort, Study Day 1, mean, read-out: AUC24): 1410 ng·h/mL | Cmax ([1]; both sexes, human, plasma, oral, 9 mg, 9 mg QD cohort, Study Day 1, mean, read-out: Cmax): 78.4 ng/mL | Tmax ([1]; both sexes, human, plasma, oral, 9 mg, 9 mg QD cohort, Study Day 1, median, read-out: tmax): 4.51 h | AUC ([1]; both sexes, human, plasma, oral, 9 mg, 9 mg QD, Study Day 6, mean, read-out: AUC24): 1570 ng·h/mL | Cmax ([1]; both sexes, human, plasma, oral, 9 mg, 9 mg QD, Study Day 6, mean, read-out: Cmax): 82 ng/mL | Tmax ([1]; both sexes, human, plasma, oral, 9 mg, 9 mg QD, Study Day 6, median, read-out: tmax): 4 h | AUC ([1]; both sexes, human, plasma, oral, 9 mg, 9 mg QD, Study Day 18, mean, read-out: AUCτ): 4600 ng·h/mL | Cmax ([1]; both sexes, human, plasma, oral, 9 mg, 9 mg QD, Study Day 18, mean, read-out: Cmax, ss): 243 ng/mL | Tmax ([1]; both sexes, human, plasma, oral, 9 mg, 9 mg QD, Study Day 18, median, read-out: tmax): 3 h | AUC ([1]; both sexes, human, plasma, oral, Day 18, range over the 0.3 to 9 mg QD dose range, read-out: mean AUCτ): 151 to 4600 ng·h/mL | concentration at 18 day ([1]; both sexes, human, plasma, oral, Day 18, range over the 0.3 to 9 mg QD dose range, read-out: mean Cav,ss): 6.27 to 192 ng/mL | Cmax ([1]; both sexes, human, plasma, oral, Day 18, range over the 0.3 to 9 mg QD dose range, read-out: mean plasma Cmax,ss): 7.86 to 243 ng/mL | AUC(0-inf) [1, 9]: 133 ng·h/mL | AUC(0-t) [1, 9]: 118 ng·h/mL | Vd/F [1, 9]: 121 L | AUC(0-inf) [1, 10]: 470 ng·h/mL | AUC(0-t) [1, 10]: 394 ng·h/mL | Vd/F [1, 10]: 133 L | AUC(0-inf) [1, 11]: 1870 ng·h/mL | AUC(0-t) [1, 11]: 1470 ng·h/mL | Vd/F [1, 11]: 126 L | AUC(0-inf) [1, 12]: 2330 ng·h/mL | AUC(0-t) [1, 12]: 1960 ng·h/mL | Vd/F [1, 12]: 145 L | AUC(0-inf) [1, 13]: 5760 ng·h/mL | AUC(0-t) [1, 13]: 4430 ng·h/mL | Vd/F [1, 13]: 119 L | Tmax ([1]; both sexes, human, plasma, po, 9 mg, oral QD 0.3, 1, 3, 6, 9 mg, range over the dose range, read-out: median tmax): 2.5 to 4 h | attainment of steady-state ([1]; oral QD 0.3-9 mg from Day 6): appeared to reach steady-state on Day 18 | Tmax [2]: 2 to 15 h | deaths or SAEs [3]: No deaths or SAEs were reported

— patent publication US20230338391A1, “TREATMENT FOR DEPRESSION” (TAKEDA PHARMACEUTICAL COMPANY LIMITED, priority 2020, published 2023)
